Test results published in the NIST ThermoML archive (doi:10.1021/je800248w).

How the values were obtained:
[1] = excess molar enthalpy (molar enthalpy of mixing); xn = mol fraction of the nth substance listed; details: 101 kPa, Liquid, Calvet calorimetry
[2] = molar heat capacity at constant pressure; xn = mol fraction of the nth substance listed; details: 101.3 kPa, Liquid, Small sample (50 mg) DSC

CCn1cc[n+](C)c1.O=C([O-])C(F)(F)F [1-ethyl-3-methylimidazolium trifluoroacetate] + O
Details | excess molar enthalpy [kcal/mol] | molar heat capacity at constant pressure [J/K/mol]
[1], 313.04 K, x2 = 0.2499 | -0.315 | –
[1], 313.04 K, x2 = 0.25 | -0.315 | –
[1], 313.04 K, x2 = 0.498 | -0.511 | –
[1], 313.04 K, x2 = 0.4981 | -0.511 | –
[1], 313.04 K, x2 = 0.7483 | -0.49 | –
[1], 313.04 K, x2 = 0.7484 | -0.49 | –
[1], 323.04 K, x2 = 0.2474 | -0.312 | –
[1], 323.04 K, x2 = 0.2485 | -0.313 | –
[1], 323.04 K, x2 = 0.4967 | -0.501 | –
[1], 323.04 K, x2 = 0.4993 | -0.502 | –
[1], 323.04 K, x2 = 0.7472 | -0.469 | –
[1], 323.04 K, x2 = 0.7482 | -0.468 | –
[1], 333.06 K, x2 = 0.2464 | -0.311 | –
[1], 333.06 K, x2 = 0.2477 | -0.312 | –
[1], 333.06 K, x2 = 0.4934 | -0.492 | –
[1], 333.06 K, x2 = 0.4966 | -0.494 | –
[1], 333.06 K, x2 = 0.7466 | -0.449 | –
[1], 333.06 K, x2 = 0.7476 | -0.448 | –
[1], 348.06 K, x2 = 0.2486 | -0.312 | –
[1], 348.06 K, x2 = 0.2489 | -0.311 | –
[1], 348.06 K, x2 = 0.4979 | -0.478 | –
[1], 348.06 K, x2 = 0.4994 | -0.478 | –
[1], 348.06 K, x2 = 0.748 | -0.412 | –
[1], 348.06 K, x2 = 0.7484 | -0.411 | –
[2], 283.15 K, x2 = 0 | – | 308
[2], 283.15 K, x2 = 0.2025 | – | 264
[2], 283.15 K, x2 = 0.3973 | – | 226
[2], 283.15 K, x2 = 0.5817 | – | 182
[2], 283.15 K, x2 = 0.7562 | – | 139
[2], 283.15 K, x2 = 0.842 | – | 117
[2], 283.15 K, x2 = 0.9256 | – | 99
[2], 283.15 K, x2 = 0.9668 | – | 87
[2], 283.15 K, x2 = 0.9912 | – | 78
[2], 293.15 K, x2 = 0 | – | 313
[2], 293.15 K, x2 = 0.2025 | – | 269
[2], 293.15 K, x2 = 0.3973 | – | 231
[2], 293.15 K, x2 = 0.5817 | – | 186
[2], 293.15 K, x2 = 0.7562 | – | 143
[2], 293.15 K, x2 = 0.842 | – | 120
[2], 293.15 K, x2 = 0.9256 | – | 100
[2], 293.15 K, x2 = 0.9668 | – | 90
[2], 293.15 K, x2 = 0.9912 | – | 80
[2], 303.15 K, x2 = 0 | – | 320
[2], 303.15 K, x2 = 0.2025 | – | 274
[2], 303.15 K, x2 = 0.3973 | – | 238
[2], 303.15 K, x2 = 0.5817 | – | 191
[2], 303.15 K, x2 = 0.7562 | – | 147
[2], 303.15 K, x2 = 0.842 | – | 122
[2], 303.15 K, x2 = 0.9256 | – | 102
[2], 303.15 K, x2 = 0.9668 | – | 91
[2], 303.15 K, x2 = 0.9912 | – | 80
[2], 313.15 K, x2 = 0 | – | 324
[2], 313.15 K, x2 = 0.2025 | – | 276
[2], 313.15 K, x2 = 0.3973 | – | 241
[2], 313.15 K, x2 = 0.5817 | – | 194
[2], 313.15 K, x2 = 0.7562 | – | 150
[2], 313.15 K, x2 = 0.842 | – | 124
[2], 313.15 K, x2 = 0.9256 | – | 103
[2], 313.15 K, x2 = 0.9668 | – | 92
[2], 313.15 K, x2 = 0.9912 | – | 81
[2], 323.15 K, x2 = 0 | – | 328
[2], 323.15 K, x2 = 0.2025 | – | 280
[2], 323.15 K, x2 = 0.3973 | – | 245
[2], 323.15 K, x2 = 0.5817 | – | 198
[2], 323.15 K, x2 = 0.7562 | – | 153
[2], 323.15 K, x2 = 0.842 | – | 126
[2], 323.15 K, x2 = 0.9256 | – | 104
[2], 323.15 K, x2 = 0.9668 | – | 92
[2], 323.15 K, x2 = 0.9912 | – | 81
[2], 333.15 K, x2 = 0 | – | 332
[2], 333.15 K, x2 = 0.2025 | – | 285
[2], 333.15 K, x2 = 0.3973 | – | 251
[2], 333.15 K, x2 = 0.5817 | – | 201
[2], 333.15 K, x2 = 0.7562 | – | 155
[2], 333.15 K, x2 = 0.842 | – | 127
[2], 333.15 K, x2 = 0.9256 | – | 104
[2], 333.15 K, x2 = 0.9668 | – | 92
[2], 333.15 K, x2 = 0.9912 | – | 81
[2], 343.15 K, x2 = 0 | – | 337
[2], 343.15 K, x2 = 0.2025 | – | 290
[2], 343.15 K, x2 = 0.3973 | – | 254
[2], 343.15 K, x2 = 0.5817 | – | 204
[2], 343.15 K, x2 = 0.7562 | – | 157
[2], 343.15 K, x2 = 0.842 | – | 129
[2], 343.15 K, x2 = 0.9256 | – | 105
[2], 343.15 K, x2 = 0.9668 | – | 92
[2], 343.15 K, x2 = 0.9912 | – | 81

CCn1cc[n+](C)c1.O=S(=O)([O-])C(F)(F)F [1-ethyl-3-methylimidazolium trifluoromethanesulfonate] + O
Details | excess molar enthalpy [kcal/mol] | molar heat capacity at constant pressure [J/K/mol]
[1], 313.13 K, x2 = 0.2487 | 0.168 | –
[1], 313.13 K, x2 = 0.2495 | 0.168 | –
[1], 313.13 K, x2 = 0.4958 | 0.269 | –
[1], 313.13 K, x2 = 0.4972 | 0.269 | –
[1], 313.13 K, x2 = 0.7477 | 0.242 | –
[1], 323.12 K, x2 = 0.2476 | 0.166 | –
[1], 323.12 K, x2 = 0.2495 | 0.167 | –
[1], 323.12 K, x2 = 0.4959 | 0.276 | –
[1], 323.12 K, x2 = 0.4969 | 0.275 | –
[1], 323.12 K, x2 = 0.7471 | 0.259 | –
[1], 323.12 K, x2 = 0.7474 | 0.258 | –
[1], 333.13 K, x2 = 0.2482 | 0.167 | –
[1], 333.13 K, x2 = 0.2485 | 0.167 | –
[1], 333.13 K, x2 = 0.495 | 0.283 | –
[1], 333.13 K, x2 = 0.4986 | 0.284 | –
[1], 333.13 K, x2 = 0.7477 | 0.277 | –
[1], 333.13 K, x2 = 0.7479 | 0.276 | –
[1], 348.12 K, x2 = 0.2497 | 0.168 | –
[1], 348.12 K, x2 = 0.2514 | 0.169 | –
[1], 348.12 K, x2 = 0.4967 | 0.297 | –
[1], 348.12 K, x2 = 0.4985 | 0.298 | –
[1], 348.12 K, x2 = 0.748 | 0.308 | –
[1], 348.12 K, x2 = 0.7481 | 0.307 | –
[2], 283.15 K, x2 = 0 | – | 353
[2], 283.15 K, x2 = 0.2259 | – | 283
[2], 283.15 K, x2 = 0.4351 | – | 226
[2], 283.15 K, x2 = 0.6152 | – | 181
[2], 283.15 K, x2 = 0.7835 | – | 135
[2], 283.15 K, x2 = 0.8614 | – | 114
[2], 283.15 K, x2 = 0.9353 | – | 94
[2], 283.15 K, x2 = 0.9712 | – | 80
[2], 283.15 K, x2 = 0.9924 | – | 76
[2], 293.15 K, x2 = 0 | – | 358
[2], 293.15 K, x2 = 0.2259 | – | 287
[2], 293.15 K, x2 = 0.4351 | – | 230
[2], 293.15 K, x2 = 0.6152 | – | 184
[2], 293.15 K, x2 = 0.7835 | – | 137
[2], 293.15 K, x2 = 0.8614 | – | 115
[2], 293.15 K, x2 = 0.9353 | – | 95
[2], 293.15 K, x2 = 0.9712 | – | 81
[2], 293.15 K, x2 = 0.9924 | – | 77
[2], 303.15 K, x2 = 0 | – | 366
[2], 303.15 K, x2 = 0.2259 | – | 294
[2], 303.15 K, x2 = 0.4351 | – | 236
[2], 303.15 K, x2 = 0.6152 | – | 189
[2], 303.15 K, x2 = 0.7835 | – | 140
[2], 303.15 K, x2 = 0.8614 | – | 118
[2], 303.15 K, x2 = 0.9353 | – | 97
[2], 303.15 K, x2 = 0.9712 | – | 83
[2], 303.15 K, x2 = 0.9924 | – | 78
[2], 313.15 K, x2 = 0 | – | 371
[2], 313.15 K, x2 = 0.2259 | – | 298
[2], 313.15 K, x2 = 0.4351 | – | 239
[2], 313.15 K, x2 = 0.6152 | – | 191
[2], 313.15 K, x2 = 0.7835 | – | 142
[2], 313.15 K, x2 = 0.8614 | – | 120
[2], 313.15 K, x2 = 0.9353 | – | 98
[2], 313.15 K, x2 = 0.9712 | – | 83
[2], 313.15 K, x2 = 0.9924 | – | 78
[2], 323.15 K, x2 = 0 | – | 376
[2], 323.15 K, x2 = 0.2259 | – | 302
[2], 323.15 K, x2 = 0.4351 | – | 242
[2], 323.15 K, x2 = 0.6152 | – | 193
[2], 323.15 K, x2 = 0.7835 | – | 144
[2], 323.15 K, x2 = 0.8614 | – | 122
[2], 323.15 K, x2 = 0.9353 | – | 99
[2], 323.15 K, x2 = 0.9712 | – | 84
[2], 323.15 K, x2 = 0.9924 | – | 78
[2], 333.15 K, x2 = 0 | – | 380
[2], 333.15 K, x2 = 0.2259 | – | 306
[2], 333.15 K, x2 = 0.4351 | – | 245
[2], 333.15 K, x2 = 0.6152 | – | 195
[2], 333.15 K, x2 = 0.7835 | – | 146
[2], 333.15 K, x2 = 0.8614 | – | 123
[2], 333.15 K, x2 = 0.9353 | – | 99
[2], 333.15 K, x2 = 0.9712 | – | 85
[2], 333.15 K, x2 = 0.9924 | – | 79
[2], 343.15 K, x2 = 0 | – | 384
[2], 343.15 K, x2 = 0.2259 | – | 311
[2], 343.15 K, x2 = 0.4351 | – | 249
[2], 343.15 K, x2 = 0.6152 | – | 197
[2], 343.15 K, x2 = 0.7835 | – | 148
[2], 343.15 K, x2 = 0.8614 | – | 125
[2], 343.15 K, x2 = 0.9353 | – | 100
[2], 343.15 K, x2 = 0.9712 | – | 85
[2], 343.15 K, x2 = 0.9924 | – | 79
